Test results reported in the Kinase Knowledgebase extract (Sharma et al. 2016).

What follows are molecules tested against MAPK14 (human) (UniProt Q16539) (assay: Inhibition of MAPK14 Kinase Activity).
Sequence of MAPK14 (human) (Q16539 whole entry, looked up): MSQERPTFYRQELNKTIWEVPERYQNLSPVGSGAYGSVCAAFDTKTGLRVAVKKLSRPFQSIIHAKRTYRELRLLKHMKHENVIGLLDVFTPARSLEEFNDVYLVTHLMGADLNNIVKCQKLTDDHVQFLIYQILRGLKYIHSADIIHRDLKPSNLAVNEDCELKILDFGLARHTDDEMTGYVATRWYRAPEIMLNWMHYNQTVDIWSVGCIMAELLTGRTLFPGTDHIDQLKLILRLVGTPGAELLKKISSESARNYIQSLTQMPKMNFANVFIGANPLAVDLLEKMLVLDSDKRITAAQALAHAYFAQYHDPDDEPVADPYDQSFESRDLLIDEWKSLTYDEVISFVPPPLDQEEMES

IC50, < 10 µM:
Cc1ccc(C(=O)NC2CC2)cc1-c1ccc2c(-c3ccc(F)cc3)n[nH]c2c1
COCCNc1ccc(-n2ncc3cc(-c4cc(C(=O)NC5CC5)cc(F)c4C)ccc32)cc1
Cc1ccc(C(=O)Nc2c(C)noc2C)cc1-c1ccc2c(-c3ccc(F)cc3)n[nH]c2c1
Cc1cccc(-n2ncc3cc(-c4cc(C(=O)NC5CC5)cc(F)c4C)ccc32)c1
Cc1c(F)cc(C(=O)NC2CC2)cc1-c1ccc2c(cnn2Cc2cc[n+]([O-])cc2)c1
Cc1c(F)cc(C(=O)NC2CC2)cc1-c1ccc2c(cnn2-c2cc(=O)[nH]cn2)c1
Cc1c(F)cc(C(=O)NC2CC2)cc1-c1ccc2c(cnn2-c2ccc(NCC3CCCO3)cc2)c1 (configuration not stated)
Cc1c(F)cc(C(=O)NC2CC2)cc1-c1ccc2c(cnn2Cc2ccc(C(F)(F)F)cc2)c1
Cc1c(F)cc(C(=O)NC2CC2)cc1-c1ccc2c(cnn2Cc2cccc[n+]2[O-])c1
Cc1c(F)cc(C(=O)NC2CC2)cc1-c1ccc2c(cnn2Cc2ccccc2)c1
Cc1c(F)cc(C(=O)NCC2CC2)cc1-c1ccc2c(cnn2-c2ccccc2)c1
Cc1c(F)cc(C(=O)NC2CC2)cc1-c1ccc2c(cnn2Cc2ccc[n+]([O-])c2)c1
Cc1cc(Cn2ncc3cc(-c4cc(C(=O)NC5CC5)cc(F)c4C)ccc32)no1
COc1ccc(C2N=Nc3cc(-c4cc(C(=O)NC5CC5)ccc4C)ccc32)cc1 (configuration not stated)
CCNC(=O)c1cc(F)c(C)c(-c2ccc3c(-c4ccc(OC)nc4)n[nH]c3c2)c1
CCNC(=O)c1ccc(-c2n[nH]c3cc(-c4cc(C(=O)NCC)ccc4C)ccc23)nc1
Cc1c(F)cc(C(=O)NC2CC2)cc1-c1ccc2c(ccn2-c2cccc(C#N)c2)c1
Cc1c(F)cc(C(=O)NC2CC2)cc1-c1ccc2c(cnn2-c2ccc(NCCCN(C)C)cc2)c1
CCNC(=O)c1ccc(C)c(-c2ccc3c(-c4ccc(F)nc4)n[nH]c3c2)c1
Cc1c(F)cc(C(=O)NC2CCC2)cc1-c1ccc2c(cnn2-c2ccccc2)c1
CCNC(=O)c1cc(F)c(C)c(-c2ccc3c(-c4cccnc4)n[nH]c3c2)c1
Cc1c(F)cc(C(=O)NC2CC2)cc1-c1ccc2c(cnn2Cc2cccnc2)c1
CCNC(=O)c1ccc(C)c(-c2ccc3c(-c4cc(C)nn4C)n[nH]c3c2)c1
Cc1c(F)cc(C(=O)NC2CC2)cc1-c1ccc2c(cnn2-c2ccc(NC3CCOCC3)cc2)c1
Cc1c(F)cc(C(N)=O)cc1-c1ccc2c(cnn2-c2ccccc2)c1
CCNC(=O)c1cc(F)c(C)c(-c2ccc3c(-c4ccc(C(F)(F)F)cc4)n[nH]c3c2)c1
CCNC(=O)c1cc(F)c(C)c(-c2ccc3c(-c4cccnc4OC)n[nH]c3c2)c1
CCNC(=O)c1ccc(C)c(-c2ccc3c(-c4ccc(F)cc4)n[nH]c3c2)c1
CNC(=O)c1cc(F)c(C)c(-c2ccc3c(cnn3-c3ccccc3)c2)c1
CCNC(=O)c1cc(F)c(C)c(-c2ccc3c(-c4ncccn4)n[nH]c3c2)c1
CCNC(=O)c1cc(F)c(C)c(-c2ccc3c(-c4ccc(F)cc4C)n[nH]c3c2)c1
Cc1c(F)cc(C(=O)NC2CC2)cc1-c1ccc2c(cnn2Cc2ccccn2)c1
Cc1c(F)cc(C(=O)NC2CC2)cc1-c1ccc2c(cnn2-c2ccc(Br)cc2)c1
Cc1c(F)cc(C(=O)Nc2cccnn2)cc1-c1ccc2c(cnn2-c2ccccc2)c1
CCNC(=O)c1cc(F)c(C)c(-c2ccc3c(-c4ccccn4)n[nH]c3c2)c1
CCNC(=O)c1cc(F)c(C)c(-c2ccc3c(cnn3-c3ccccc3)c2)c1
Cc1cnn(C)c1NC(=O)c1cc(F)c(C)c(-c2ccc3c(-c4ccc(F)cc4)n[nH]c3c2)c1
Cc1c(F)cc(C(=O)NC2CC2)cc1-c1ccc2c(ccn2-c2cccnc2)c1
Cc1c(F)cc(C(=O)NC2CC2)cc1-c1ccc2c(cnn2Cc2ccncc2)c1
CCNC(=O)c1cc(F)c(C)c(-c2ccc3c(-c4ccc(Cl)cc4)n[nH]c3c2)c1
Cc1c(F)cc(C(=O)NC(C)C)cc1-c1ccc2c(cnn2-c2ccccc2)c1
Cc1c(F)cc(C(=O)NC2CC2)cc1-c1ccc2c(cnn2-c2ccc(C(F)(F)F)cc2)c1
CCn1nccc1NC(=O)c1cc(F)c(C)c(-c2ccc3c(-c4ccc(F)cc4)n[nH]c3c2)c1
Cc1c(F)cc(C(=O)Nc2cc[nH]n2)cc1-c1ccc2c(-c3ccc(F)cc3)n[nH]c2c1
COc1ccc(-c2noc3cc(-c4cc(C(=O)NC5CC5)cc(F)c4C)ccc23)cc1
Cc1c(F)cc(C(=O)NC2CC2)cc1-c1ccc2c(ccn2-c2ccc(C#N)cc2)c1
Cc1c(F)cc(C(=O)NC2CC2)cc1-c1ccc2c(cnn2Cc2ccc(F)cc2)c1
CCNC(=O)c1ccc(C)c(-c2ccc3c(-c4ccc(S(C)(=O)=O)cc4)n[nH]c3c2)c1
Cc1cc(-n2ncc3cc(-c4cc(C(=O)NC5CC5)cc(F)c4C)ccc32)nc(C)n1
CCNC(=O)c1cc(F)c(C)c(-c2ccc3c(-c4c(C)noc4C)n[nH]c3c2)c1
Cc1c(F)cc(C(=O)Nc2ccnn2C)cc1-c1ccc2c(-c3ccc(F)cc3)n[nH]c2c1
CCCNC(=O)c1cc(F)c(C)c(-c2ccc3c(cnn3-c3ccccc3)c2)c1
Cc1c(F)cc(C(=O)NC2CC2)cc1-c1ccc2c(cnn2-c2ccc(NCCN(C)C)cc2)c1
Cc1ccc(C(=O)Nc2c(C)cnn2C)cc1-c1ccc2c(-c3ccc(F)cc3)n[nH]c2c1
Cc1c(F)cc(C(=O)NC2CC2)cc1-c1ccc2c(cnn2-c2ccc(N3CCOCC3)cc2)c1
Cc1c(F)cc(C(=O)NC2CC2)cc1-c1ccc2c(cnn2-c2ccccc2)c1
CNC(=O)Cc1ccc(-n2ncc3cc(-c4cc(C(=O)NC5CC5)cc(F)c4C)ccc32)cc1
CCNC(=O)c1cc(F)c(C)c(-c2ccc3c(-c4cnc(C)n4C)n[nH]c3c2)c1
CCNC(=O)c1cc(F)c(C)c(-c2ccc3c(-c4ccc(F)cc4OC)n[nH]c3c2)c1
CCNC(=O)c1cc(F)c(C)c(-c2ccc3c(-c4ccnc(C)c4)n[nH]c3c2)c1
Cc1c(F)cc(C(=O)Nc2ccc(F)cc2)cc1-c1ccc2c(cnn2-c2ccccc2)c1
Cc1cc(F)ccc1-n1ncc2cc(-c3cc(C(=O)NC4CC4)cc(F)c3C)ccc21
CCNC(=O)c1ccc(C)c(-c2ccc3c(-c4cnccn4)n[nH]c3c2)c1
Cc1c(F)cc(C(=O)NC2CCCC2)cc1-c1ccc2c(cnn2-c2ccccc2)c1
Cc1c(F)cc(C(=O)NC2CC2)cc1-c1ccc2c(cnn2-c2ccc(NCC(O)CO)cc2)c1 (configuration not stated)
CCNC(=O)c1ccc(C)c(-c2ccc3c(-c4ccc(OCC)cc4)n[nH]c3c2)c1
Cc1c(F)cc(C(=O)Nc2ncccn2)cc1-c1ccc2c(cnn2-c2ccccc2)c1
Cc1ccc(C(=O)NC2CCC2)cc1-c1ccc2c(cnn2-c2ccc(F)cc2)c1
Cc1c(F)cc(C(=O)NC2CC2)cc1-c1ccc2c(cnn2-c2ccc(S(C)(=O)=O)cc2)c1
Cc1c(F)cc(C(=O)NC2CC2)cc1-c1ccc2c(cnn2-c2ccc(F)cc2)c1
Cc1c(F)cc(C(=O)NC2CC2)cc1-c1ccc2c(-c3ccc(O)cc3)noc2c1
Cc1c(F)cc(C(=O)NC2CC2)cc1-c1ccc2c(ccn2-c2ccccn2)c1
CCNC(=O)c1ccc(C)c(-c2ccc3c(-c4cncnc4)n[nH]c3c2)c1
Cc1ccc(C(=O)NC2CC2)cc1-c1ccc2c(cnn2-c2ccc(F)cc2)c1
CCNC(=O)c1ccc(C)c(-c2ccc3c(-c4ccc(N5CCOCC5)nc4)n[nH]c3c2)c1
Cc1ccc(C(=O)Nc2ccc(F)cc2)cc1-c1ccc2c(cnn2-c2ccccc2)c1
CCCCNC(=O)c1cc(F)c(C)c(-c2ccc3c(cnn3-c3ccccc3)c2)c1
Cc1c(F)cc(C(=O)Nc2cc[nH]n2)cc1-c1ccc2c(cnn2-c2ccccc2)c1
CCNC(=O)c1cc(F)c(C)c(-c2ccc3c(-c4ccc(C)cc4)n[nH]c3c2)c1
Cc1c(F)cc(C(=O)NC2CC2)cc1-c1ccc2c(cnn2-c2ccc(NCC3CCCCC3)cc2)c1
CCNC(=O)c1cc(F)c(C)c(-c2ccc3c(-c4cccc[n+]4[O-])n[nH]c3c2)c1
CCNC(=O)c1ccc(C)c(-c2ccc3c(-c4ccc(OC)cc4)n[nH]c3c2)c1
